Experimental data published in patent EP1276895B1, “METHOD FOR THE IDENTIFICATION OF ACTIVE SITE PROTEASE INACTIVATORS” (THE UNIVERSITY OF GEORGIA RESEARCH FOUNDATION, INC., priority 2000, dated 2001).
Values joined by “and” are separate entries in the source; they are usually repeats but may differ in a detail not shown here. Equal entries are not always repeated. Residues, ends and D or L forms follow the SMILES beside them. *: point of attachment. AFC = O=c1cc(C(F)(F)F)c2ccc(N*)cc2o1; Cbz = O=C(OCc1ccccc1)*; CH2F = FC*

Columns and labels:
Format in all cases: biochemical
[1] = tested on: purified Taenia solium cysteine protease; assay: Competitor assay of low Vmax substrates (vehicles) against high Vmax substrate cocktails (Step III), purified protease; conditions: for inhibition with the final cocktail (7.4%): 7.4% cocktail = Z-FR-AFC + Z-FAR-AFC + Z-AAK-AFC + AP-AFC + Z-VLR-AFC, 1X10^-6 M each, vehicle 8X10^-6 M; for Ki of vehicle: Dixon plot, preliminary, values not reported; for inhibition in the presence of the 1.4% cocktail: 1.4% cocktail = Z-FR-AFC 1X10^-6M
Experimental: (We employed "Vmax" here although Kcat could also be used). Due to the lower number of substrates, a percentage was not chosen for the "BOTTOM %" " substrates. Alternately, all substrates which were not cleaved as determined by a value of 10 uM/hr or less, were chosen to be tested in this step for competitive ability. From this point forth, the term "vehicle" will represent low Vmax substrates that were capable of inhibiting cleavage of the percent cocktails. In this instance, we tested for "vehicles" which inhibited cleavage of the TOP 1.4% cocktail (they were delivered into the active site). Based upon our results from Step II, the top 1.4% cocktail was composed of Z-Phe-Arg-AFC, the highest cleaved substrate.
The experiment began with a competitor test between the noncleaved low Vmax substrates and the highest Vmax substrate, Z-Phe-Arg-AFC. Concentrations were varied between the low Vmax substrate and Z-Phe-Arg-AFC, as described above under "refinement of assay" until a relative inhibition profile was obtained.
The mixture was allowed to equilibrate for a period of 30 minutes. Finally, active purified enzyme was added to the tubes at a concentration which was always 50 times less than the concentration of the high and low Vmax substrates, in order to insure saturation conditions. This concentration varied from purification to purification and the amount added depended upon the yield and specific activity of the purified protease.
Positive controls were set up similarly as described for test controls, except that solvent was added in substitution for the low Vmax substrate (in a volume equal to the low Vmax volume addition). All of the substrates could be dissolved in dimethylsulfoxide (DMSO), and therefore, this was the solvent of choice. Negative controls were set up by adding the low Vmax and the high Vmax substrate in a tube without the protease. All potential non-proteolytic induced liberation of AFC was therefore controlled for in this tube (a feature which also insured stability of the AFC substrates, since these substrates will freely liberate AFC when unstable). A tube set will be established for this negative control.
All controls were set up in triplicate, and experiments repeated a minimum of five times. The assays were incubated at 37°C, for 18 hours overnight.
Percent inhibition was calculated as: %Inhibition =; ((AFC positive for"Y"-AFC negative for"Y")-(AFC test-AFC negative for"Y")X100)/(AFC positive for "Y"-AFC negative for "Y") [formula]
A 2.9% cocktail of the high Vmax substrates was made. This was composed of Z-FR-AFC and the second most cleaved substrate, Z-FAR-AFC. The vehicles promoted from the initial screenings above were again tested for competitive inhibition ability with the new cocktails. Their concentrations were set identically to those which were "fixed" in the previous protocols. In other words, 8X10^-6M of the vehicle was added to the culture tube with 1X10^-6 M of Z-FR-AFC and 1X10^-6 M of Z-FAR-AFC. Active protease was added last at a concentration that was 50 times less than the concentration of the high Vmax substrate (to ensure saturating conditions).
In similar experimental fashion, a 4.4%, 5.9%, and 7.4% cocktail were tested with each of the promising vehicles. Each percentage point represented an increase by one substrate. Each of the individual components in the cocktail were added at 1X10^-6 M each, to 8X10^-6 M of the vehicle. The composition of the cocktails was as follows: 4.4% cocktail: Z-FR-AFC, Z-FAR-AFC, and Z-AAK-AFC (third highest cleaved substrate); 5.9% cocktail: Z-FR-AFC, Z-FAR-AFC, Z-AAK-AFC, and AP-AFC (fourth highest cleaved substrate); 7.4% cocktail: […], Z-FAR-AFC, Z-AAK-AFC, AP-AFC, and Z-VLR-AFC. We stopped at this number of substrates in the cocktail, since confidence was obtained that inhibitory potential of vehicles could be "diluted out."
Finally, a manageable set of candidate vehicles was determined. […]

[2] = tested on: purified Taenia solium cysteine protease; assay: Differential cleavage (selectivity) test, T. solium protease
Experimental: (§1) In order to perform the assay, the vehicle (for Step VI) or inhibitor (for Step IX) were incubated with the appropriate substrate in the correct assay buffer and allowed to equilibrate. Subsequently, the protease was added, and the assay was allowed to incubate for an appropriate time. The concentrations used in this experiment were as follows: Vehicle was set up at 4 X 10^-5 M in final assay buffer; Inhibitor was set up at 3 X 10^-10 M in the final assay buffer. Accordingly, the dosages employed should be the minimal amount of vehicle or inhibitor necessary to induce inhibition. […] Substrates were set up based upon the preferred substrate for cleavage of the particular enzyme.
(§2) Positive controls were set up similarly as described for test controls, except that solvent was added in substitution for the inhibitor or vehicle (in a volume equal to the volume of inhibitor or vehicle addition). All of the inhibitors and vehicles could be dissolved in dimethylsulfoxide (DMSO), and therefore, this was the solvent of choice. Negative controls were set up by adding the inhibitor or vehicle and the preferred substrates in a tube without the protease. All potential non-proteolytic liberation of AFC was therefore controlled for in this tube (a feature which also insured stability of the AFC substrates, since these substrates will freely liberate AFC when unstable).
(§3) All controls were set up in triplicate, and experiments were repeated a minimum of five times.
(§4) Percent inhibition was calculated as: % Inhibition = ((AFC positive for ʺSIʺ-AFC negative for ʺSIʺ)-(AFC test-AFC negative for ʺSIʺ))/(AFC positive for ʺSIʺ-AFC negative for ʺSIʺ) × 100 [formula] In this preliminary test, we employed the following human-derived enzymes (with indicated mechanistic class): Cathepsin B (cysteine), Cathepsin L (cysteine), Cathepsin H (cysteine), Cathepsin D (aspartic) Trypsin (serine), the purified Taenia solium cysteine protease, and the Taenia solium crude mix. Cathepsin B was prepared in an assay buffer of 10 mM L-cysteine in 0.4 M Citrate buffer, pH 6.1, using Z-ARR-AFC as the cleavage substrate. Cathepsin L was prepared in an assay buffer of 10 mM L-cysteine in 0.4 M Citrate buffer, pH 5.5, using Z-FR-AFC as the cleavage substrate. Cathepsin H was prepared in an assay buffer of 10 mM L-cysteine in 0.15 M PBS buffer, pH 6.8, using L-R-AFC as the cleavage substrate. Cathepsin D was prepared in an assay buffer of 0.15 M PBS, pH 7.1, using Z-RGFFP-AFC as the cleavage substrate. Trypsin was prepared in an assay buffer of 0.15 M PBS, pH 8.0, supplemented with 100 mM CaCl2 and with Z-R-AFC as the cleavage substrate. Enzyme was incubated so that it was at least 50 times less than the concentration of substrate in order to insure saturating conditions.

Cathepsin L (cysteine) = Cathepsin L (cysteine) (Homo sapiens, UniProt P07711); assay: Differential cleavage (selectivity) test, Cathepsin L; conditions: 0.4 M Citrate pH 5.5, 10 mM L-cysteine, substrate Z-FR-AFC
Experimental: as §1, §2, §3, §4

Cathepsin D (aspartic) = Cathepsin D (aspartic) (Homo sapiens, UniProt P07339); assay: Differential cleavage (selectivity) test, Cathepsin D; conditions: 0.15 M PBS pH 7.1, substrate Z-RGFFP-AFC; for inhibition at 0.0003 µM: inhibitor 3 X 10^-10 M
Experimental: as §1, §2, §3, §4

[3] = vehicle 8X10^-6M, purified protease
[4] = inhibitor 3 X 10^-10 M, 0.0003 µM

Sequence of Cathepsin D (aspartic) (P07339 65-412): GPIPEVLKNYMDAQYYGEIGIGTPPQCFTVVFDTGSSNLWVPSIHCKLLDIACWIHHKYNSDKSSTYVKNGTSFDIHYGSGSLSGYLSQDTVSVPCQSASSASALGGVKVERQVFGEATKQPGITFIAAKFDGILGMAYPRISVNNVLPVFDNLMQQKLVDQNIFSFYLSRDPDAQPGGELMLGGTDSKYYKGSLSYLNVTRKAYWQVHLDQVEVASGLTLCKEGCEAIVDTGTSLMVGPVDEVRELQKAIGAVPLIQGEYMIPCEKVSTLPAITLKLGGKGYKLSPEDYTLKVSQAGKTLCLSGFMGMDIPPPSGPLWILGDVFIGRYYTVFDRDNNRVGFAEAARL
Sequence of Cathepsin L (cysteine) (P07711 114-333): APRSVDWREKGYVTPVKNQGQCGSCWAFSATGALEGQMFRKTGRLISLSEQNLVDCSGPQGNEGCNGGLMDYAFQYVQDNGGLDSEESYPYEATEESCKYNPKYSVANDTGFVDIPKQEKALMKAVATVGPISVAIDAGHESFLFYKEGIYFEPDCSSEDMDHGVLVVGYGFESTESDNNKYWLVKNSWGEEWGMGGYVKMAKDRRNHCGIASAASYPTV

Molecule	inhibition with the final cocktail (7.4%) ([1]; purified protease)	Ki of vehicle [1]	V Value ([1]; purified protease, V = P * M, P = inhibition with first (1.4%) cocktail, M = inhibition with last (7.4%) cocktail, vehicle 8X10^-6M, each cocktail substrate 1X10^-6 M)	% Inhibition ([2]; vehicle 4 X 10^-5 M)	% Inhibition (Cathepsin L (cysteine); vehicle 4 X 10^-5 M)	% Inhibition (Cathepsin L (cysteine); vehicle 4 X 10^-5 M, 40 µM)	% Inhibition (Cathepsin D (aspartic); vehicle 4 X 10^-5 M, 40 µM)	inhibition in the presence of the 1.4% cocktail [1, 3]	inhibition at 40 µM (Cathepsin L (cysteine); vehicle 4 X 10^-5 M)	inhibition at 40 µM (Cathepsin D (aspartic); vehicle 4 X 10^-5 M)	% Inhibition ([2]; inhibitor 3 X 10^-10 M)	inhibition at 0.0003 µM (Cathepsin L (cysteine); inhibitor 3 X 10^-10 M)	% Inhibition (Cathepsin L (cysteine); [4])	inhibition at 0.0003 µM (Cathepsin D (aspartic))
Mu-Leu-Tyr-AFC [Mu-LY-AFC]	≥ 50%	lowest Ki values	0.452 and 0.450	75%	25%	subtle inhibition	0%	–	–	–	–	–	–	–
CC(C)C[C@H](NC(=O)OCc1ccccc1)C(=O)N[C@@H](CC(C)C)C(=O)N[C@@H](Cc1ccc(O)cc1)C(=O)Nc1ccc2c(C(F)(F)F)cc(=O)oc2c1 [Z-LLY-AFC, Z-Leu-Leu-Tyr-AFC] (Cbz-Leu-Leu-Tyr-{AFC})	≥ 50%	lowest Ki values	–	70%	–	–	–	greater than 20%	0%	0%	–	–	–	–
CC(C)C[C@H](NC(=O)[C@H](CC(C)C)NC(=O)[C@H](CC(C)C)NC(=O)OCc1ccccc1)C(=O)CF [Z-LLL-FMK, Z-Leu-Leu-Leu-fluoromethylketone] (Cbz-Leu-Leu-Leu-CH2F)	–	–	–	–	–	–	–	–	–	–	98%	50%	almost half of the inhibition of the Taenia solium cysteine protease	0%
CC(C)C[C@H](NC(=O)OCc1ccccc1)C(=O)N[C@@H](CC(C)C)C(=O)N[C@@H](CC(C)C)C(=O)Nc1ccc2c(C(F)(F)F)cc(=O)oc2c1 [Z-LLL-AFC, Z-Leu-Leu-Leu-AFC] (Cbz-Leu-Leu-Leu-{AFC})	≥ 50%	lowest Ki values	–	68%	–	–	–	greater than 20%	0%	0%	–	–	–	–
CC(C)C[C@H](NC(=O)OCc1ccccc1)C(=O)N[C@@H](CC(C)C)C(=O)N[C@@H](Cc1ccc(O)cc1)C(=O)CF [Z-LLY-FMK, Z-Leu-Leu-Tyr-FMK] (Cbz-Leu-Leu-Tyr-CH2F)	–	–	–	–	–	–	–	–	–	–	62%	0%	did not inhibit cathepsin L at all	0%
